Calls of active or inactive are those of the source.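 How the source made its calls: active means compounds giving half or more protection of infected cells from virus-caused growth loss, again on retest; inactive means the rest.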
Tested on: CEM cells HIV-1 protection, formazan growth assay
Experiment: NCI AIDS Antiviral Assay
Conditions: for IC50: measured here: growth of uninfected CEM cells
Outline: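 Human CEM cells, uninfected and HIV-1-infected, exposed to five drug concentrations; growth measured by soluble formazan assay and scored as percent protection from infection, with protecting compounds retested.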

SMILES	EC50 [µM]	IC50 [µM]	outcome
Oc1ccccc1/C=N/N1C(=S)N(C23CC4CC(CC(C4)C2)C3)C(=Nc2ccccc2)C1=Nc1ccccc1	> 200	85.1	
O=C(CCCN1CCC2(CC1)NC(=O)c1ccccc1O2)c1ccc(F)cc1	> 200	> 200	
O=C1OC(c2ccccc2)c2cccnc21 (configuration not stated)	> 1170	> 1170	
O=C1NC(=O)/C(=C/c2ccc(S(=O)(=O)N/N=C/c3ccccc3)cc2)N1	> 200	> 200	
C/C=N\N1C(=O)c2ccccc2C1=O	> 191	> 191	
O=c1c2ccccc2oc2nccnc12			inactive
CNc1ccccc1S(=O)(=O)c1ccccc1Cl	> 63.1	40.7	
COc1cc(SSc2ccc(N)c(OC)c2)ccc1N	> 200	26.3	
CN(/N=C(\C(=O)O)c1ccccc1)C1=NCCCCN1	> 200	> 100	
COc1cc2c(c(O)c1OC)C(=O)C1CCC(=O)N1C2c1cccc2ccccc12 (configuration not stated)	> 200	31.6	
O=c1c(Cc2ccccc2)c(O)n(Cc2nc3ccccc3[nH]2)c(=S)n1-c1ccccc1	> 200	> 200	
COc1ccc2c(-c3cc4ccccc4o3)cc(=O)oc2c1			inactive
O=c1[nH]c(NCCCCCO)nc2nc[nH]c12	> 200	> 200	
Cc1ccc(/C=C2\CCC/C(=C\c3ccc(O)c(CN4CCCCC4)c3)C2=O)cc1	> 100		
Cc1cc(Cl)c2c(c1)C(=N/O)/C(=C\c1ccco1)O2	> 200	10.2	
COc1cc(C2c3cc4c(cc3OC(Nc3ccccc3)C2C)OCO4)cc(OC)c1O (configuration not stated)			inactive
CCN(CC)P(=O)(c1ccc2c(c1)OCCOCCOCCOCCO2)N(CC)CC	> 200	> 200	
CCc1c(Cc2[nH]c(Cc3[nH]c(C=O)c(C)c3CC)c(CC)c2CC)[nH]c(C=O)c1C	> 200	> 200	
COc1cc(N=Nc2ccccc2)cc(/C=N\[N-]C(N)=S)c1[O-].COc1cc(N=Nc2ccccc2)cc(/C=N\[N-]C(N)=S)c1[O-].[Fe+4]	> 26.3	> 26.3	
CC(=O)NNc1nc(C)c(C(=O)NNC(=O)C(=O)Nc2c(Cl)cc([N+](=O)[O-])cc2Cl)s1	> 74.1	> 74.1	
CCCCOC(=O)OC1CCC2(C)CC3CCC2(OO3)C1(C)C (configuration not stated)	> 200	0.977	
CCOc1ccc(-n2c(=O)c(N=Nc3ccccc3Cl)c(O)n(-c3ccc(Br)cc3)c2=S)cc1	> 174	> 174	

SMILES	EC50 [µM]	IC50 [µM]	outcome
c1ccc(C2NC(c3ccccc3)N3C(c4ccccc4)N23)cc1 (configuration not stated)	> 16.6	> 16.6	
NCCN1CCCCCc2ccccc21	> 200	123	
COc1nc(N=P(c2ccccc2)(c2ccccc2)c2ccccc2)cc(=O)n1C			inactive
O=S(=O)(O)c1cccc(N=Nc2cc(S(=O)(=O)O)c3cccnc3c2O)c1	> 550	> 550	
CCCNC(=O)Cn1c2c(c3ccccc31)CCCC2	> 200	69.2	
COc1ccc(C2(Br)C(=O)NN=C2C)cc1 (configuration not stated)	> 200	10.7	
O=C1CCN2CCC(=O)c3c2c(cc2ccccc32)N1	> 26.9	> 26.9	
O=C1Nc2ccc([N+](=O)[O-])c3c([N+](=O)[O-])ccc1c23	> 200	1.02	
O=C(O)C(O)C(O)C(=O)O (configuration not stated)	> 200	> 200	
CC(C)(C)c1ccc2c(c1)CNCCNCc1cc(C(C)(C)C)ccc1OCC1(CO2)COc2ccc(C(C)(C)C)cc2CNCCNCc2cc(C(C)(C)C)ccc2OC1	> 1.51	0.219	
COC(=O)/C(C#N)=C1\NC(=O)CC(c2ccccc2)C1C#N (configuration not stated)	> 200	57.5	
Nc1ccc(C(=O)NN2C(=O)C(Cl)C2c2cc(Br)ccc2O)cc1 (configuration not stated)	> 200	30.9	
CCOc1ccc(NC(=O)C2=C(C)NC(C)=C(C(=O)Nc3ccc(OCC)cc3)C2c2ccc(O)c(OC)c2)cc1	> 17	> 17	
Cn1c(N)c(N=O)c(=O)n(C)c1=S	> 200	> 200	
CC(SC(=N)N)C(=N)N (configuration not stated)	> 200	> 200	
O=C(Nc1ccccc1)c1cc(C(=O)Nc2ccccc2)[nH]n1			inactive
CCOC(=O)c1c(C)nc2c(c1-c1cn(-c3ccccc3)nc1-c1ccccc1)C(=O)c1ccccc1-2			inactive
CN1C(=O)C2CSCN2C1=S (configuration not stated)	> 955	316	
Cc1ccc(S(=O)(=O)N/N=C2\C=CC3(CC2)C(=O)N(I)c2ccccc23)cc1 (configuration not stated)			inactive
CC(=O)OC/C=C(/C)C[P+](c1ccccc1)(c1ccccc1)c1ccccc1	> 200	0.955	
CC1=C(c2ccccc2)C(c2ccccc2)=C(c2ccccc2)C2(c3ccccc3)C(=O)C(C)CN12 (configuration not stated)	> 5.75	> 5.75	
C[N+](C)=c1ccc2nc3c(ccc4ccccc43)oc-2c1	> 60.3	8.32	

SMILES	EC50 [µM]	IC50 [µM]	outcome
O=S(=O)(N=NC=C1c2ccccc2N(O)c2ccccc21)c1ccc(Cl)cc1			inactive
C[N+]1([O-])CCOCC1	> 200	> 200	
c1ccc(CN2CCC3(CC2)SSC2(CCN(Cc4ccccc4)CC2)S3)cc1	> 100	87.1	
COC(=O)C(CC(=O)c1cc2c(cc1I)OCO2)Cc1cc(OC)c(OC)c(OC)c1I (configuration not stated)	> 14.8	> 14.8	
C=C(C)[C@@H]1CC[C@]2(COC(=O)CC3(CC(=O)O)CCCC3)CC[C@]3(C)[C@H](CC[C@@H]4[C@@]5(C)CC[C@H](OC(=O)CC6(CC(=O)O)CCCC6)C(C)(C)[C@@H]5CC[C@]43C)[C@@H]12	> 200	5.89	
NC1(S(=O)(=O)O)c2ccccc2-c2ccccc21	> 200	151	
CC(=O)O[C@]12CCCCCCC1C1(O)C(O)CCC[C@H]12 (some centres not stated)	> 200	> 200	
O=C(O)CCCCCCCCCOc1ccccc1	> 200	40.7	
O=C(CC1=Nc2nnc(-c3nnc4n3C(=O)C(CC(=O)C3CC3)=N4)n2C1=O)C1CC1	> 24.5	> 24.5	
O=C1c2ccccc2C(=O)N1CCN(CCN1C(=O)c2ccccc2C1=O)Cc1ccccc1			inactive
Cc1ccc(C(=O)CC(O)(C(F)(F)F)C(F)(F)F)cc1[N+](=O)[O-]	> 200	6.61	
Cc1cc2nncn2c2nnnn12	> 200	> 200	
CC(=N\N=C\c1ccccn1)/C(C)=N/N=C/c1ccccn1	> 100	14.1	
O=c1[nH]c(=O)n(C2CC(O)C(CO)O2)cc1OCc1ccccc1 (configuration not stated)	> 200	> 200	
Cc1ccc(N(CC(=O)O)S(=O)(=O)c2ccccc2)cc1			inactive
C/C=C1\[C@H]2C=C(C)C[C@@]1(N)c1ccc(=O)[nH]c1[C@@H]2O	> 479	> 479	
COc1ccc(SSc2ccc(OC)cc2)cc1	> 200	> 200	
COc1c(OC(C)C)c(OC(C)C)c2oc(=O)n3c2c1C(c1ccccc1-n1c(C)ccc1C)C=C3 (configuration not stated)	> 200	> 200	
COS(=O)(=O)OCCC(NC(=O)OCc1ccccc1)C(=O)OCc1ccccc1 (configuration not stated)	> 83.2	> 83.2	
O=C(CSc1nc2ccccc2c(=O)n1-c1ccccc1)N=Nc1c(O)[nH]c2ccc(Br)cc12	61.7	85.1	

— PubChem BioAssay AID179 (DTP/NCI, 2004)
